In patent US20240360177A1, “PEPTIDES WITH ANTIMICROBIAL ACTIVITIES” (priority 2021, published 2024):
Values after ≈ are worked out from the molar mass of the structure shown. Read-outs that look alike come from different tables or passages of the source. Non-standard residues stand in square brackets, D forms with d. Residues, ends and D or L forms follow the SMILES beside them. hArg = N=C(N)NCCCC[C@H](N)C(=O)O; hLeu = CC(C)CC[C@H](N)C(=O)O; Ava = NCCCCC(=O)O

Experiments:
[1] = tested on: Candida spp.
[2] = tested on: C. gattii; settings: 72 h
[3] = tested on: C. auris
[4] = tested on: C. dubliniensis
[5] = tested on: C. parapsilosis
[6] = tested on: C. krusei
[7] = tested on: C. albicans
[8] = tested on: Scedosporium spp.; settings: 72 h
[9] = tested on: C. glabrata
[10] = tested on: C. neoformans; settings: 72 h
[11] = tested on: C. tropicalis
[12] = tested on: Lomentospora prolificans
[13] = N = 15 strains, 24 h (Table 13)
[14] = N = 15 strains, 48 h (Table 13)

Row | Compound | MIC C. gattii [2] [µg/mL] | MIC C. auris ([3]; 24 h) [µg/mL] | MIC C. dubliniensis ([4]; 24 h) [µg/mL] | MIC C. parapsilosis ([5]; 24 h) [µg/mL] | MIC C. krusei ([6]; 24 h) [µg/mL] | MIC C. albicans ([7]; 24 h) [µg/mL] | MIC Range Scedosporium spp. [8] [µg/mL] | MIC C. glabrata ([9]; 24 h) [µg/mL] | MIC C. neoformans [10] [µg/mL] | MIC C. tropicalis ([11]; 24 h) [µg/mL] | MIC Range Lomentospora prolificans [12] [µg/mL] | also measured
1 | N=C(N)NCCC[C@@H](N)C(=O)N[C@@H](CCCNC(=N)N)C(=O)N[C@H](CCCNC(=N)N)C(=O)N[C@H](CCCNC(=N)N)C(=O)N[C@@H](CCCNC(=N)N)C(=O)N[C@H](CCCNC(=N)N)C(=O)N[C@H](CCCNC(=N)N)C(=O)N[C@@H](CCCNC(=N)N)C(=O)N[C@H](CCCNC(=N)N)C(=O)N[C@@H](CCCNC(=N)N)C(=O)N[C@H](CCCNC(=N)N)C(=O)N[C@@H](CCCNC(=N)N)C(=O)N[C@H](CCCNC(=N)N)C(=O)N[C@@H](CCCNC(=N)N)C(N)=O [14 Polyarginine, rRrrRrrRrRrRrR-NH2, reference compound] |  |  |  |  |  |  |  |  |  |  |  | Activity at 24 h MIC50 against Candida spp. [1, 13]: 0.5 µg/mL; Activity at 24 h MIC90 against Candida spp. [1, 13]: 8 µg/mL; Activity at 48 h MIC50 against Candida spp. [1, 14]: 0.5 µg/mL; Activity at 48 h MIC90 against Candida spp. [1, 14]: >32 µg/mL
2 | N=C(N)NCCC[C@@H](N)C(=O)N[C@@H](CCCNC(=N)N)C(=O)NCCCCC(=O)N[C@H](CCCNC(=N)N)C(=O)N[C@@H](CCCNC(=N)N)C(=O)N[C@H](CCCNC(=N)N)C(=O)NCCCCC(=O)N[C@H](CCCNC(=N)N)C(=O)N[C@@H](CCCNC(=N)N)C(=O)N[C@H](CCCNC(=N)N)C(=O)NCCCCC(=O)N[C@H](CCCNC(=N)N)C(=O)N[C@@H](CCCNC(=N)N)C(N)=O [SEQ ID NO: 23, rR-(Ava)-rRr-(Ava)-rRr-(Ava)-rR-NH2] (H-[dR]R[Ava][dR]R[dR][Ava][dR]R[dR][Ava][dR]R-NH2) | 2 (≈ 1.07 µM) | >32 | 1 (≈ 0.533 µM) | 0.25 (≈ 0.133 µM) | 4 (≈ 2.13 µM) | 2 (≈ 1.07 µM) | 16 to 32 | 4 (≈ 2.13 µM) | 8 (≈ 4.26 µM) | 1 (≈ 0.533 µM) | >32 | 
3 | N=C(N)NCCC[C@@H](N)C(=O)N[C@@H](CCCNC(=N)N)C(=O)N[C@H](CCCNC(=N)N)C(=O)NCCCCC(=O)N[C@H](CCCNC(=N)N)C(=O)N[C@@H](CCCNC(=N)N)C(=O)NCCCCC(=O)N[C@H](CCCNC(=N)N)C(=O)N[C@@H](CCCNC(=N)N)C(=O)N[C@H](CCCNC(=N)N)C(=O)NCCCCC(=O)N[C@H](CCCNC(=N)N)C(=O)N[C@@H](CCCNC(=N)N)C(N)=O [SEQ ID NO: 24, rRr-(Ava)-rR-(Ava)-rRr-(Ava)-rR-NH2] (H-[dR]R[dR][Ava][dR]R[Ava][dR]R[dR][Ava][dR]R-NH2) | 4 (≈ 2.13 µM) | >32 | 1 (≈ 0.533 µM) | 0.25 (≈ 0.133 µM) | 8 (≈ 4.26 µM) | 2 (≈ 1.07 µM) | 8 to 32 | 8 (≈ 4.26 µM) | 16 (≈ 8.53 µM) | 1 (≈ 0.533 µM) | >32 | 
4 | N=C(N)NCCC[C@@H](N)C(=O)N[C@@H](CCCNC(=N)N)C(=O)NCCCCC(=O)N[C@H](CCCNC(=N)N)C(=O)N[C@@H](CCCNC(=N)N)C(=O)N[C@H](CCCNC(=N)N)C(=O)NCCCCC(=O)N[C@H](CCCNC(=N)N)C(=O)N[C@@H](CCCNC(=N)N)C(=O)NCCCCC(=O)N[C@H](CCCNC(=N)N)C(=O)N[C@@H](CCCNC(=N)N)C(=O)N[C@H](CCCNC(=N)N)C(N)=O [SEQ ID NO: 25, rR-(Ava)-rRr-(Ava)-rR-(Ava)-rRr-NH2] (H-[dR]R[Ava][dR]R[dR][Ava][dR]R[Ava][dR]R[dR]-NH2) | 4 (≈ 2.13 µM) | >32 | 2 (≈ 1.07 µM) | 0.5 (≈ 0.266 µM) | 16 (≈ 8.53 µM) | 4 (≈ 2.13 µM) | 16 to 32 | 8 (≈ 4.26 µM) | 32 (≈ 17.1 µM) | 2 (≈ 1.07 µM) | >32 | 
5 | N=C(N)NCCC[C@@H](N)C(=O)N[C@@H](CCCNC(=N)N)C(=O)NCCCCC(=O)N[C@H](CCCNC(=N)N)C(=O)N[C@@H](CCCNC(=N)N)C(=O)NCCCCC(=O)N[C@H](CCCNC(=N)N)C(=O)N[C@@H](CCCNC(=N)N)C(=O)N[C@H](CCCNC(=N)N)C(=O)NCCCCC(=O)N[C@H](CCCNC(=N)N)C(=O)N[C@@H](CCCNC(=N)N)C(=O)N[C@H](CCCNC(=N)N)C(N)=O [SEQ ID NO: 26, rR-(Ava)-rR-(Ava)-rRr-(Ava)-rRr-NH2] (H-[dR]R[Ava][dR]R[Ava][dR]R[dR][Ava][dR]R[dR]-NH2) | 4 (≈ 2.13 µM) | >32 | 4 (≈ 2.13 µM) | 0.5 (≈ 0.266 µM) | 8 (≈ 4.26 µM) | 8 (≈ 4.26 µM) | 16 to 32 | 8 (≈ 4.26 µM) | 16 (≈ 8.53 µM) | 2 (≈ 1.07 µM) | 32 (≈ 17.1 µM) | 
6 | N=C(N)NCCC[C@@H](N)C(=O)N[C@@H](CCCNC(=N)N)C(=O)N[C@H](CCCNC(=N)N)C(=O)NCCCCC(=O)N[C@H](CCCNC(=N)N)C(=O)N[C@@H](CCCNC(=N)N)C(=O)N[C@H](CCCNC(=N)N)C(=O)NCCCCC(=O)N[C@H](CCCNC(=N)N)C(=O)N[C@@H](CCCNC(=N)N)C(=O)NCCCCC(=O)N[C@H](CCCNC(=N)N)C(=O)N[C@@H](CCCNC(=N)N)C(N)=O [SEQ ID NO: 27, rRr-(Ava)-rRr-(Ava)-rR-(Ava)-rR-NH2] (H-[dR]R[dR][Ava][dR]R[dR][Ava][dR]R[Ava][dR]R-NH2) | 2 (≈ 1.07 µM) | >32 | 1 (≈ 0.533 µM) | 0.25 (≈ 0.133 µM) | 8 (≈ 4.26 µM) | 2 (≈ 1.07 µM) | 8 to 16 | 8 (≈ 4.26 µM) | 8 (≈ 4.26 µM) | 1 (≈ 0.533 µM) | 32 (≈ 17.1 µM) | 
7 | N=C(N)NCCC[C@@H](N)C(=O)N[C@@H](CCCNC(=N)N)C(=O)N[C@H](CCCNC(=N)N)C(=O)N[C@@H](CCCNC(=N)N)C(=O)N[C@H](CCCNC(=N)N)C(=O)N1CCC[C@H]1C(=O)N[C@H](CCCNC(=N)N)C(=O)N[C@@H](CCCNC(=N)N)C(=O)N[C@H](CCCNC(=N)N)C(=O)N[C@@H](CCCNC(=N)N)C(=O)N[C@H](CCCNC(=N)N)C(=O)N1CCC[C@H]1C(=O)N[C@H](CCCNC(=N)N)C(=O)N[C@@H](CCCNC(=N)N)C(=O)N[C@H](CCCNC(=N)N)C(=O)N[C@@H](CCCNC(=N)N)C(N)=O [SEQ ID NO: 61, rRrRr-P-rRrRr-P-rRrR-NH2] (H-[dR]R[dR]R[dR]P[dR]R[dR]R[dR]P[dR]R[dR]R-NH2) |  | 1 (≈ 0.417 µM) | 0.25 (≈ 0.104 µM) | 0.25 (≈ 0.104 µM) | 0.5 (≈ 0.209 µM) | 0.25 (≈ 0.104 µM) |  | 0.5 (≈ 0.209 µM) |  | 0.25 (≈ 0.104 µM) |  | Activity at 24 h MIC50 against Candida spp. ([1]; 24 h): 0.5 µg/mL; Activity at 24 h MIC90 against Candida spp. ([1]; 24 h): 1 µg/mL; Activity at 48 h MIC50 against Candida spp. ([1]; 48 h): 0.5 µg/mL; Activity at 48 h MIC90 against Candida spp. ([1]; 48 h): 16 µg/mL
8 | N=C(N)NCCCC[C@H](NC(=O)[C@@H](CCCNC(=N)N)NC(=O)[C@H](CCCCNC(=N)N)NC(=O)[C@@H](CCCNC(=N)N)NC(=O)CCCCNC(=O)[C@H](CCCCNC(=N)N)NC(=O)[C@@H](CCCNC(=N)N)NC(=O)[C@H](CCCCNC(=N)N)NC(=O)[C@@H](CCCNC(=N)N)NC(=O)CCCCNC(=O)[C@@H](CCCNC(=N)N)NC(=O)[C@H](CCCCNC(=N)N)NC(=O)[C@@H](CCCNC(=N)N)NC(=O)CCCCNC(=O)[C@@H](CCCNC(=N)N)NC(=O)[C@H](CCCCNC(=N)N)NC(=O)[C@H](N)CCCNC(=N)N)C(N)=O [SEQ ID NO: 89, r(Har)r-(Ava)-r(Har)r-(Ava)-r(Har)r(Har)-(Ava)-r(Har)r(Har)-NH2] (H-[dR][hArg][dR][Ava][dR][hArg][dR][Ava][dR][hArg][dR][hArg][Ava][dR][hArg][dR][hArg]-NH2) | 0.25 (≈ 0.0967 µM) | 0.5 (≈ 0.193 µM) | 1 (≈ 0.387 µM) | 0.5 (≈ 0.193 µM) | 1 (≈ 0.387 µM) | 1 (≈ 0.387 µM) |  | 1 (≈ 0.387 µM) | 0.25 (≈ 0.0967 µM) | 1 (≈ 0.387 µM) |  | 
9 | CC(C)CC[C@H](N)C(=O)N[C@@H](CCCNC(=N)N)C(=O)N[C@H](CCCNC(=N)N)C(=O)N1CCC[C@H]1C(=O)N[C@H](CCCNC(=N)N)C(=O)N[C@@H](CCCNC(=N)N)C(=O)N[C@H](CCCNC(=N)N)C(=O)N1CCC[C@H]1C(=O)N[C@H](CCCNC(=N)N)C(=O)N[C@@H](CCCNC(=N)N)C(=O)N[C@H](CCCNC(=N)N)C(=O)N[C@@H](CCCNC(=N)N)C(=O)N1CCC[C@H]1C(=O)N[C@H](CCCNC(=N)N)C(=O)N[C@@H](CCCNC(=N)N)C(=O)N[C@H](CCCNC(=N)N)C(=O)N[C@@H](CCCNC(=N)N)C(N)=O [SEQ ID NO: 94, (hLeu)Rr-P-rRr-P-rRrR-P-rRrR-NH2] (H-[hLeu]R[dR]P[dR]R[dR]P[dR]R[dR]RP[dR]R[dR]R-NH2) |  | 1 (≈ 0.406 µM) | 0.5 (≈ 0.203 µM) | 0.25 (≈ 0.101 µM) | 1 (≈ 0.406 µM) | 0.5 (≈ 0.203 µM) |  | 0.5 (≈ 0.203 µM) |  | 0.5 (≈ 0.203 µM) |  | 
10 | rRr-(Apg)-rRr-(Apg)-rRrR-(Apg)-rRrR-NH2 [SEQ ID NO: 38] |  | 2 | 0.5 | 0.25 | 0.25 | 0.5 |  | 1 |  | 0.5 |  | 
11 | rRr-(Igl)-rRr-(Igl)-rRrR-(Igl)-rRrR-NH2 [SEQ ID NO: 75] |  |  |  |  |  |  |  |  |  |  |  | MIC C. auris [3]: 0.5 µg/mL; MIC C. dubliniensis [4]: 0.5 µg/mL; MIC C. parapsilosis [5]: 0.5 µg/mL; MIC C. krusei [6]: 0.5 µg/mL; MIC C. albicans [7]: 0.5 µg/mL; MIC C. glabrata [9]: 0.5 µg/mL; MIC C. tropicalis [11]: 0.5 µg/mL
